According to patent US5096924A, “Anticancer antibiotic MI43-37F11 substance” (501 Azidan Hojin Biseibutsu Kagaku Kenkyu Kai, priority 1989, dated 1992):
Values after ≈ are worked out from the molar mass of the structure shown.

What was measured:
[1] = tested on: peritoneal macrophages; assay: Effect on phagocytosis of the peritoneal macrophages; type: in vivo, CDF1 mice; conditions: for Rate (%) of Increase in phagocytic action of peritoneal macrophages: 3 days and one day before harvest, control 100
Protocol: (4) Experiments for estimation of the effect of the antibiotic MI43-37F11 substance on phagocytosis of the peritoneal macrophages were conducted by the following procedure. Thus, 3 days and one day before the harvest of the peritoneal macrophages, MI43-37F11 substance was intraperitoneally administered to CDF1 mice (female, 8-weeks old, 3 mice) at a dosage of 50 mg/kg, 5 mg/kg or 0.5 mg/kg. One day after the administration of MI43-37F11 substance, the peritoneal macrophages were harvested from the peritoneal cavity of the mice of the treated group of mice and then inoculated into a culture medium present in a plastic dish (Falcone) at the cell density of 5×10^5 cells/m(, followed by incubation of the macrophages. The incubated medium containing the macrophages was then added with 7.5×10^6 cells/ml of heat-treated yeast cells, followed by further incubation for a time. The macrophages were then fixed by addition of methanol and stained by Giemsa staining method. The number of the yeast cells which received the phagocytosis by 400 macrophages was counted. The control group of mice (untreated) received only intraperitoneal injection of physiological saline in place of the administration of MI43-37F11 substance, before the harvest of the peritoneal macrophages was done. Assumed that the number of the yeast cells which had received the phagocytosis by 400 macrophages as harvested from the mice of the control group was amounting to 100, the rate of increase in the phagocytic action of the peritoneal macrophages as harvested from the treated group of mice was evaluated. In other words, the rate (%) of increase in the phagocytic action of the peritoneal macrophages of the mice of the treated group was calculated according to the following equation: [formula] where T means the mumber of yeast cells having received the phagocytosis by 400 macrophages which were harvested from the treated group of mice, and C means the number of yeast cells having received the phagocytosis by 400 macrophages which were harvested from the control group of mice (untreated).

[2] = tested on: mouse Leukemia EL4; assay: Inhibition of proliferation of mouse leukemia EL4 cells; type: cell-based; conditions: 48 h; mouse leukemia EL4, 37° C, 2 days
Protocol: A cell suspension containing cells of mouse Leukemia L1210, mouse Leukemia P388, mouse Leukemia EL4, mouse IMC carcinoma or human lung cancer LX-1 cells in a culture medium containing 10% calf serum at a cell density of 1 x 10^5 cells/ml was prepared, and 200 μl-portion of the cell suspension so prepared was placed in a microplate and then added with a solution of MI43-37F11 substance at varying concentrations (dissolved in a mixture of water and dimethylsulfoxide (95:5)). The cell suspension containing the test compound added was subsequently incubated at 37° C for 2 days (but 5 days for the LX-1 cells).
After the incubation, the number of the cells of the L1210 cells, P388 cells, the EL4 cells and the IMC carcinoma cells in the treated groups was counted by means of Coulter-counter. The control group (untreated) of the cell suspension to which the test compound was not added was incubated in the same way as above and then the number of the cells was similarly counted.
Rate (%) of inhibition of the cell proliferation of the treated group against that of the control group (untreated) was evaluated. […]

[3] = tested on: Ehrlich carcinoma; assay: Therapeutic treatment of Ehrlich carcinoma-bearing mice by intraperitoneal injection; type: in vivo, ICR mice
Protocol: (a) Experiments for therapeutic treatment of Ehrlich carcinoma-bearing mice were conducted by intraperitoneal injection of the antibiotic MI43-37F11 substance. Thus, a cell suspension of Ehrlich ascites carcinoma cells was subcutaneously inoculated at the abdominal region of ICR mice (female, 6-week old, 4 mice in each treated group) so that the number of the carcinoma cells as subcutaneously transplanted was 2×10^6 cells per mouse. After the transplantation of the carcinoma cells, the antibiotic MI43-37F11 substance was administered by intraperitoneal injection to the mice having the transplanted and firmly grown carcinoma cells, according to the following schedule of administration. Namely, MI43-37F11 substance was administered at a dosage of 10 mg/kg or 2.5 mg/kg or 0.625 mg/kg only once on the 7th day after the transplantation of the cells, or alternatively MI43-37F11 substance was administered at a dosage of 2.5 mg/kg or 1.25 mg/kg or 0.625 mg/kg, totally five times but every other day from the 7th day to the 14th day after the transplantation of the carcinoma cells. The administration of MI43-37F11 substance was not made but intraperitoneal injection of physiological saline was made in the mice of the control group (untreated) (8 mice in each control group).
(§1) On the 15th day after the transplantation of the carcinoma cells, the mass of the tumor (carcinoma) was surgically removed out of each mouse and weighed. The rate of the reduction in the weight of the tumor (carcinoma) obtained from the group of mice treated with MI43-37F11 substance was evaluated in term of the rate (%) of inhibition, with such an assumption that the weight of the tumor obtained from the control group of mice was amounting to 100. In other words, the rate (%) of inhibition to the growth of Ehrlich carcinoma was calculated according to the following equation [formula] where C means the weight of the tumor in the control group of mice (untreated) and T means the weight of the tumor of the treated group of mice.

[4] = tested on: Ehrlich carcinoma; assay: Therapeutic treatment of Ehrlich carcinoma-bearing mice by oral administration; type: in vivo, ICR mice; conditions: days 1-9, 14th day; for Weight of tumor (mg ± S.D.): control 1,084 ± 256
Protocol: as §1
(b) Another experiments for therapeutic treatment of Ehrlich carcinoma-bearing mice were conducted by oral administration of MI43-37F11 substance. Thus, the cell suspension of Ehrlich ascites carcinoma cells was subcutaneously inoculated at the abdominal region of ICR mice (female, 6-week old, 5 mice in each treated group) so that the number of the carcinoma cells as subcutaneously implanted was 2×10^6 cells per mouse. The MI43-37F11 substance was orally administered to the mice of the treated group at a dosage of 6.3 mg/kg, 12.5 mg/kg, 25 mg/kg, […] or 100 mg/kg once a day during the consecutive 9 days from the 1st day to the 9th day after the implantation of the carcinoma cells. On the 14th day after the implantation of the carcinoma cells, the mass of the tumor (carcinoma) was surgically removed out of each mouse and weighed. The weight of the tumor obtained from the treated group of mice was compared with the weight of the tumor obtained from the control group of mice (untreated), by calculating the rate (%) of inhibition according to the same equation as above.

## COc1cc(O)c2c(=O)oc(CO)cc2c1 [MI43-37F11 substance]
[1]; 0.5 mg/kg i.p.
  Rate (%) of Increase in phagocytic action of peritoneal macrophages: 102%
[1]; 5 mg/kg i.p.
  Rate (%) of Increase in phagocytic action of peritoneal macrophages: 80%
[1]; 50 mg/kg i.p.
  Rate (%) of Increase in phagocytic action of peritoneal macrophages: 144%
[1]; summary in words
  enhance the phagocytic action of the macrophages: effective
[2]
  IC50: 52 µg/mL (≈ 234 µM)
[3]; 0.625 mg/kg i.p., 7th day (only once), tumor weight on 15th day
  Rate (%) of Inhibition: 12%
[3]; 0.625 mg/kg/day i.p., 7th day to 14th day, every second day, totally 5 times
  Rate (%) of Inhibition: 30%
[3]; 1.25 mg/kg/day i.p., 7th day to 14th day, every second day, totally 5 times
  Rate (%) of Inhibition: 67%
[3]; 2.5 mg/kg i.p., 7th day (only once), tumor weight on 15th day
  Rate (%) of Inhibition: 51%
[3]; 2.5 mg/kg/day i.p., 7th day to 14th day, every second day, totally 5 times
  Rate (%) of Inhibition: 60%
[3]; 10 mg/kg i.p., 7th day (only once), tumor weight on 15th day
  Rate (%) of Inhibition: 59%
[4]; 6.3 mg/kg/day oral
  Rate (%) of Inhibition: 45%
[4]; 6.3 mg/kg/day oral, *P < 0.05
  Weight of tumor (mg ± S.D.): 586 ± 282 mg
[4]; 12.5 mg/kg/day oral
  Rate (%) of Inhibition: 63%
[4]; 12.5 mg/kg/day oral, **P < 0.01
  Weight of tumor (mg ± S.D.): 391 ± 266 mg
[4]; 25.0 mg/kg/day oral
  Rate (%) of Inhibition: 74%
[4]; 25.0 mg/kg/day oral, ***P < 0.001
  Weight of tumor (mg ± S.D.): 280 ± 152 mg
[4]; 50.0 mg/kg/day oral
  Rate (%) of Inhibition: 55%
[4]; 50.0 mg/kg/day oral, **P < 0.01
  Weight of tumor (mg ± S.D.): 485 ± 123 mg
[4]; 100.0 mg/kg/day oral
  Rate (%) of Inhibition: 47%
[4]; 100.0 mg/kg/day oral, **P < 0.01
  Weight of tumor (mg ± S.D.): 566 ± 421 mg
